According to ChEMBL document CHEMBL1949518, “Synthesis and biological evaluation of some new 2-pyrazolines bearing benzene sulfonamide moiety as potential anti-inflammatory and anti-cancer agents” (Eur J Med Chem, 2011):

Experiments:
UACC-257 = experiment: Anticancer activity against human UACC257 cells after 48 hrs by SRB assay; type: functional; conditions: UACC-257, 48 h
LOX IMVI = experiment: Anticancer activity against human LOXIMVI cells after 48 hrs by SRB assay; type: functional; conditions: for CC50: read-out: LC50 (the source's name)
HCT-116 = experiment: Anticancer activity against human HCT116 cells after 48 hrs by SRB assay; type: functional; conditions: HCT-116, 48 h
HCT-15 = experiment: Anticancer activity against human HCT15 cells after 48 hrs by SRB assay; type: functional; conditions: HCT-15, 48 h
SK-OV-3 = experiment: Anticancer activity against human SKOV3 cells after 48 hrs by SRB assay; type: functional; conditions: SK-OV-3, 48 h; for CC50: read-out: LC50 (the source's name)
SF-295 = experiment: Anticancer activity against human SF295 cells after 48 hrs by SRB assay; type: functional; conditions: SF-295, 48 h
SR = experiment: Anticancer activity against human SR cells after 48 hrs by SRB assay; type: functional
EKVX = experiment: Anticancer activity against human EKVX cells after 48 hrs by SRB assay; type: functional
NCI-H226 = experiment: Anticancer activity against human NCI-H226 cells after 48 hrs by SRB assay; type: functional; conditions: NCI-H226, 48 h
DU-145 = experiment: Anticancer activity against human DU145 cells after 48 hrs by SRB assay; type: functional; conditions: DU-145, 48 h; for CC50: read-out: LC50 (the source's name)
MOLT-4 = experiment: Anticancer activity against human MOLT4 cells after 48 hrs by SRB assay; type: functional; conditions: MOLT-4, 48 h
K562 = experiment: Anticancer activity against human K562 cells after 48 hrs by SRB assay; type: functional; conditions: K562, 48 h
OVCAR-8 = experiment: Anticancer activity against human OVCAR8 cells after 48 hrs by SRB assay; type: functional; conditions: OVCAR-8, 48 h; for CC50: read-out: LC50 (the source's name)
PC-3 = experiment: Anticancer activity against human PC3 cells after 48 hrs by SRB assay; type: functional; conditions: PC-3, 48 h; for CC50: read-out: LC50 (the source's name)
HCC 2998 = experiment: Anticancer activity against human HCC2998 cells after 48 hrs by SRB assay; type: functional; conditions: HCC 2998, 48 h
CAKI-1 = experiment: Anticancer activity against human Caki1 cells after 48 hrs by SRB assay; type: functional; conditions: CAKI-1, 48 h; for CC50: read-out: LC50 (the source's name)
RPMI-8226 = experiment: Anticancer activity against human RPMI8226 cells after 48 hrs by SRB assay; type: functional; conditions: RPMI-8226, 48 h
OVCAR-5 = experiment: Anticancer activity against human OVCAR5 cells after 48 hrs by SRB assay; type: functional; conditions: OVCAR-5, 48 h
[1] = target: Prostaglandin G/H synthase 1 (Bos taurus, UniProt O62664); experiment: Inhibition of bovine COX1 assessed as PGE2 formation preincubated for 10 mins by ELISA
Mus musculus [2] = experiment: Toxicity in Swiss albino mouse assessed as behavioral change at 100 mg/kg, po measured up to 24 hrs; type: organism-based; parameters: dose 100 mg/kg, route oral; conditions: in vivo
Rattus norvegicus = experiment: Ulcerogenic activity in fasted Wistar albino rat at 60 mg/kg, po administered as 3 dose measured after 6 hrs post last dose; type: toxicity, organism-based; parameters: dose 60 mg/kg, route oral; conditions: in vivo
Mus musculus [3] = experiment: Toxicity in Swiss albino mouse assessed as mortality at 100 mg/kg, po measured up to 24 hrs; type: organism-based; parameters: dose 100 mg/kg, route oral; conditions: in vivo

Chain of Prostaglandin G/H synthase 1 (O62664 whole entry): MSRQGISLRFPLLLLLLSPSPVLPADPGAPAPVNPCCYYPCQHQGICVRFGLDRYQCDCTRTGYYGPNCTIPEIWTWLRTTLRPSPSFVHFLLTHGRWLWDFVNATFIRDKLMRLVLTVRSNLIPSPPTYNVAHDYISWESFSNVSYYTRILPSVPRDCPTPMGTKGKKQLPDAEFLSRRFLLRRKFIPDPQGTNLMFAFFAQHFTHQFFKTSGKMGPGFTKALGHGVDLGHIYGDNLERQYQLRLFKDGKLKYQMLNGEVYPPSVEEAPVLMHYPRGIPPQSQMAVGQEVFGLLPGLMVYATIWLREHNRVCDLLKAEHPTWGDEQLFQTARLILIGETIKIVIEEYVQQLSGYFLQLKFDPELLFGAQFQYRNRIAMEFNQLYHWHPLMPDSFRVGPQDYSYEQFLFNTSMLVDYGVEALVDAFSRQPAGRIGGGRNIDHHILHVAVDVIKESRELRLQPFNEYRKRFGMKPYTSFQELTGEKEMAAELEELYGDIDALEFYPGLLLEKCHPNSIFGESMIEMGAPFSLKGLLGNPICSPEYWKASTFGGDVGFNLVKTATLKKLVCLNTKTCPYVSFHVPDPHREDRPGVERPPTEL

Compound: Cc1cc(O)c(C2=NN(c3ccc(S(N)(=O)=O)cc3)C(c3ccc(N(C)C)cc3)C2)c(C)c1Cl (stereo unspecified)
- GI50 (UACC-257): 11.9 µM
- LC50 (UACC-257): 60.2 µM
- TGI (UACC-257): 26.8 µM
- GI50 (LOX IMVI): 2.34 µM
- TGI (LOX IMVI): 6.98 µM
- CC50 (LOX IMVI): 32.7 µM
- GI50 (HCT-116): 3.47 µM
- LC50 (concentration killing 50% of cells) (HCT-116): 36 µM
- TGI (HCT-116): 12.9 µM
- GI50 (HCT-15): 5.48 µM
- LC50 (concentration killing 50% of cells) (HCT-15): 57 µM
- TGI (HCT-15): 20.8 µM
- GI50 (SK-OV-3): 7.75 µM
- TGI (SK-OV-3): 20.6 µM
- CC50 (SK-OV-3): 4.54 µM
- GI50 (SF-295): 16 µM
- LC50 (SF-295): 62.4 µM
- TGI (SF-295): 31.6 µM
- GI50 (SR): 1.28 µM
- LC50 (concentration killing 50% of cells) (SR): 45.9 µM
- TGI (SR): 17.8 µM
- GI50 (EKVX): 1.88 µM
- LC50 (concentration killing 50% of cells) (EKVX): 59.3 µM
- TGI (EKVX): 13.6 µM
- GI50 (NCI-H226): 10.5 µM
- LC50 (NCI-H226): 55.6 µM
- TGI (NCI-H226): 24.1 µM
- GI50 (DU-145): 5.6 µM
- TGI (DU-145): 17.6 µM
- CC50 (DU-145): 42.3 µM
- GI50 (MOLT-4): 1.94 µM
- LC50 (MOLT-4): 34.9 µM
- TGI (MOLT-4): 7.26 µM
- GI50 (K562): 2.24 µM
- LC50 (K562): 33.9 µM
- TGI (K562): 11.5 µM
- GI50 (OVCAR-8): 5.75 µM
- TGI (OVCAR-8): 21.6 µM
- CC50 (OVCAR-8): 66.4 µM
- GI50 (PC-3): 4.44 µM
- TGI (PC-3): 16.8 µM
- CC50 (PC-3): 41 µM
- GI50 (HCC 2998): 6.48 µM
- LC50 (HCC 2998): 43.8 µM
- TGI (HCC 2998): 19.1 µM
- GI50 (CAKI-1): 4.38 µM
- TGI (CAKI-1): 18.2 µM
- CC50 (CAKI-1): 45 µM
- GI50 (RPMI-8226): 3.99 µM
- LC50 (RPMI-8226): 22.3 µM
- TGI (RPMI-8226): 5.02 µM
- GI50 (OVCAR-5): 12.3 µM
- LC50 (OVCAR-5): 49.7 µM
- TGI (OVCAR-5): 24.7 µM

Compound: Cc1cc(O)c(C2=NN(c3ccc(S(N)(=O)=O)cc3)C(c3ccc(Cl)cc3)C2)c(C)c1Cl (stereo unspecified)
- GI50 (UACC-257): 26.3 µM
- TGI (UACC-257): 63.1 µM
- IC50 [1]: 89.5 µM
- Activity (Mus musculus [2]): Non-toxic
- GI50 (LOX IMVI): 14.8 µM
- TGI (LOX IMVI): 32 µM
- CC50 (LOX IMVI): 69.2 µM
- GI50 (HCT-15): 14.2 µM
- TGI (HCT-15): 32 µM
- GI50 (SK-OV-3): 27.4 µM
- TGI (SK-OV-3): 90.8 µM
- CC50 (SK-OV-3): 100 µM
- GI50 (SF-295): 19.2 µM
- TGI (SF-295): 44.4 µM
- Activity (Rattus norvegicus): Non-toxic
- GI50 (SR): 14.1 µM
- TGI (SR): 37.5 µM
- GI50 (EKVX): 13.3 µM
- TGI (EKVX): 36.1 µM
- GI50 (NCI-H226): 13.4 µM
- TGI (NCI-H226): 29.4 µM
- GI50 (DU-145): 19.2 µM
- TGI (DU-145): 38.4 µM
- CC50 (DU-145): 77 µM
- GI50 (MOLT-4): 12.7 µM
- TGI (MOLT-4): 43.2 µM
- GI50 (K562): 14 µM
- TGI (K562): 44.8 µM
- GI50 (OVCAR-8): 27.3 µM
- TGI (OVCAR-8): 100 µM
- CC50 (OVCAR-8): 100 µM
- GI50 (PC-3): 9.21 µM
- TGI (PC-3): 23.9 µM
- CC50 (PC-3): 58.9 µM
- GI50 (HCC 2998): 14.8 µM
- TGI (HCC 2998): 30.9 µM
- GI50 (CAKI-1): 23.3 µM
- TGI (CAKI-1): 100 µM
- CC50 (CAKI-1): 100 µM
- Activity (Mus musculus [3]): Non-toxic
- GI50 (OVCAR-5): 19.4 µM
- TGI (OVCAR-5): 38.1 µM
